Laboratory results as given in ChEMBL document CHEMBL1201862, “PubChem BioAssay data set” (2004).
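Results reflect a 48-hour exposure of cells in 96-well plates to compound at five concentrations. Abbreviation: GI50, concentration required for 50% inhibition of growth.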 Calls of active or inactive are those of the source. Cut-off read from the data, not from the text of the source: active = GI50 up to about 1.1 µM and inactive = higher.

Tests used:
Experiment in all cases: inhibition of tumour cell growth, NCI panel, 48 h
[1] = system: TK-10
[2] = system: A549
[3] = system: DU-145
[4] = system: MDA-N
[5] = system: MDA-MB-231
[6] = system: SK-MEL-28
[7] = system: IGROV-1
[8] = system: PC-3
[9] = system: M14
[10] = system: NCI-H226
[11] = system: OVCAR-5
[12] = system: COLO 205
[13] = system: UACC-62
[14] = system: ACHN
[15] = system: LOX IMVI
[16] = system: MCF7
[17] = system: SNB-75
[18] = system: KM12
[19] = system: K562
[20] = system: SF-539
[21] = system: MOLT-4
[22] = system: SF-268
[23] = system: MDA-MB-435
[24] = system: SNB-19
[25] = system: SK-OV-3
[26] = system: U-251
[27] = system: 786-0
[28] = system: SK-MEL-5
[29] = system: HOP-62
[30] = system: HT-29
[31] = system: HCT-116
[32] = system: SW-620
[33] = system: BT-549
[34] = system: NCI-H23
[35] = system: Hs-578T
[36] = system: SF-295
[37] = system: EKVX
[38] = system: A498
[39] = system: OVCAR-8
[40] = system: NCI-H460
[41] = system: HCC 2998
[42] = system: NCI-H522
[43] = system: NCI/ADR-RES
[44] = system: HOP-92
[45] = system: OVCAR-3
[46] = system: UACC-257
[47] = system: CCRF-CEM
[48] = system: T47D
[49] = system: HCT-15
[50] = system: SK-MEL-2
[51] = system: SN12C
[52] = system: RXF 393
[53] = system: SR
[54] = system: Malme-3M
[55] = system: CAKI-1
[56] = system: RPMI-8226
[57] = system: HL-60
[58] = system: OVCAR-4
[59] = system: UO-31

Compound: COC1=C(OC)C23CCc4ccc(OC)c(O)c4C2(CCN3)CC1=O (stereo not drawn)
- GI50 [1]: > 100 µM (inactive)
- GI50 [2]: > 100 µM (inactive)
- GI50 [3]: > 100 µM (inactive)
- GI50 [4]: > 100 µM (inactive)
- GI50 [5]: > 100 µM (inactive)
- GI50 [6]: > 100 µM (inactive)
- GI50 [7]: > 100 µM (inactive)
- GI50 [8]: > 100 µM (inactive)
- GI50 [9]: > 100 µM (inactive)
- GI50 [10]: > 100 µM (inactive)
- GI50 [11]: > 100 µM (inactive)
- GI50 [12]: > 100 µM (inactive)
- GI50 [13]: > 100 µM (inactive)
- GI50 [14]: > 100 µM (inactive)
- GI50 [15]: > 100 µM (inactive)
- GI50 [16]: > 100 µM (inactive)
- GI50 [17]: > 100 µM (inactive)
- GI50 [18]: > 100 µM (inactive)
- GI50 [19]: > 100 µM (inactive)
- GI50 [20]: > 100 µM (inactive)
- GI50 [21]: > 100 µM (inactive)
- GI50 [22]: > 100 µM (inactive)
- GI50 [23]: > 100 µM (inactive)
- GI50 [24]: > 100 µM (inactive)
- GI50 [25]: > 100 µM (inactive)
- GI50 [26]: > 100 µM (inactive)
- GI50 [27]: > 100 µM (inactive)
- GI50 [28]: > 100 µM (inactive)
- GI50 [29]: > 100 µM (inactive)
- GI50 [30]: > 100 µM (inactive)
- GI50 [31]: > 100 µM (inactive)
- GI50 [32]: > 100 µM (inactive)
- GI50 [33]: > 100 µM (inactive)
- GI50 [34]: > 100 µM (inactive)
- GI50 [35]: > 100 µM (inactive)
- GI50 [36]: > 100 µM (inactive)
- GI50 [37]: > 100 µM (inactive)
- GI50 [38]: > 100 µM (inactive)
- GI50 [39]: > 100 µM (inactive)
- GI50 [40]: > 100 µM (inactive)
- GI50 [41]: > 100 µM (inactive)
- GI50 [42]: > 100 µM (inactive)
- GI50 [43]: > 100 µM (inactive)
- GI50 [44]: > 100 µM (inactive)
- GI50 [45]: > 100 µM (inactive)
- GI50 [46]: > 100 µM (inactive)
- GI50 [47]: > 100 µM (inactive)
- GI50 [48]: > 100 µM (inactive)
- GI50 [49]: > 100 µM
- GI50 [50]: > 100 µM (inactive)
- GI50 [51]: > 100 µM (inactive)
- GI50 [52]: > 100 µM (inactive)
- GI50 [53]: > 100 µM (inactive)
- GI50 [54]: > 100 µM (inactive)
- GI50 [55]: > 100 µM (inactive)
- GI50 [56]: > 100 µM (inactive)
- GI50 [57]: > 100 µM (inactive)
- GI50 [58]: > 100 µM (inactive)

Compound: C/C=C/C=C/C1=NN(c2cccc(S(=O)(=O)O)c2)C2(C1)SCC(=O)N2c1nc2ccccc2s1 (stereo not drawn)
- GI50 [1]: 47.8 µM (inactive)
- GI50 [2]: 86.3 µM (inactive)
- GI50 [3]: 34.5 µM (inactive)
- GI50 [4]: 61 µM (inactive)
- GI50 [5]: 56.2 µM (inactive)
- GI50 [6]: > 100 µM (inactive)
- GI50 [7]: 19.7 µM (inactive)
- GI50 [8]: 62.2 µM (inactive)
- GI50 [9]: > 100 µM (inactive)
- GI50 [10]: 30.8 µM (inactive)
- GI50 [11]: > 100 µM (inactive)
- GI50 [12]: > 100 µM (inactive)
- GI50 [13]: 40.7 µM (inactive)
- GI50 [14]: 76.7 µM (inactive)
- GI50 [15]: 19.6 µM (inactive)
- GI50 [16]: 47.4 µM (inactive)
- GI50 [17]: 68.5 µM (inactive)
- GI50 [18]: 54.6 µM (inactive)
- GI50 [19]: 44 µM (inactive)
- GI50 [20]: 45.9 µM (inactive)
- GI50 [21]: 29.4 µM (inactive)
- GI50 [22]: 89.7 µM (inactive)
- GI50 [23]: 36.1 µM (inactive)
- GI50 [24]: 47 µM (inactive)
- GI50 [26]: 37.9 µM (inactive)
- GI50 [27]: 19.8 µM (inactive)
- GI50 [59]: 47.8 µM (inactive)
- GI50 [28]: 85.5 µM (inactive)
- GI50 [30]: > 100 µM (inactive)
- GI50 [31]: 67 µM (inactive)
- GI50 [32]: 72.1 µM (inactive)
- GI50 [33]: 35.3 µM (inactive)
- GI50 [34]: 42.5 µM (inactive)
- GI50 [35]: > 100 µM (inactive)
- GI50 [37]: 55.8 µM (inactive)
- GI50 [38]: 50.5 µM (inactive)
- GI50 [39]: 36.2 µM (inactive)
- GI50 [40]: 45.5 µM (inactive)
- GI50 [41]: > 100 µM (inactive)
- GI50 [42]: 33.1 µM (inactive)
- GI50 [43]: 51.2 µM (inactive)
- GI50 [44]: 26.2 µM (inactive)
- GI50 [46]: > 100 µM (inactive)
- GI50 [47]: 24.2 µM (inactive)
- GI50 [48]: 24.6 µM (inactive)
- GI50 [49]: 69.2 µM
- GI50 [50]: 37.8 µM (inactive)
- GI50 [51]: 41.2 µM (inactive)
- GI50 [52]: > 100 µM (inactive)
- GI50 [53]: 25.1 µM (inactive)
- GI50 [54]: > 100 µM (inactive)
- GI50 [55]: 86.3 µM (inactive)
- GI50 [56]: 29.9 µM (inactive)
- GI50 [57]: > 100 µM (inactive)
- GI50 [58]: 93.3 µM (inactive)
